≈ marks a conversion by molar mass, not a printed value.
Key:
[1] = Assessment of solubility: HT solubility in pION buffer, UV spectrophotometry; details: kinetic from dmso stock
[2] = target: T1, human soluble guanylate cyclase alpha 1 and beta 1 subunits (sGC) stably expressed in Chinese hamster ovary cells (Homo sapiens, UniProt Q02108+Q02153); experiment: sGC cellular activator assay: cGMP in CHO cells expressing human sGC, preincubated with ODQ; assay type: cell-based; details: 40 microM ODQ preincubation, 30 min at room temperature, presence or absence of 50% human serum not given, read-out: EC50 nM, Activity of Compounds in Cellular Assay
T1 construct: expressed in transfected cells; host or cells: Chinese hamster ovary cells, stably transfected
T1 sequence (Q02108 1-690 partner): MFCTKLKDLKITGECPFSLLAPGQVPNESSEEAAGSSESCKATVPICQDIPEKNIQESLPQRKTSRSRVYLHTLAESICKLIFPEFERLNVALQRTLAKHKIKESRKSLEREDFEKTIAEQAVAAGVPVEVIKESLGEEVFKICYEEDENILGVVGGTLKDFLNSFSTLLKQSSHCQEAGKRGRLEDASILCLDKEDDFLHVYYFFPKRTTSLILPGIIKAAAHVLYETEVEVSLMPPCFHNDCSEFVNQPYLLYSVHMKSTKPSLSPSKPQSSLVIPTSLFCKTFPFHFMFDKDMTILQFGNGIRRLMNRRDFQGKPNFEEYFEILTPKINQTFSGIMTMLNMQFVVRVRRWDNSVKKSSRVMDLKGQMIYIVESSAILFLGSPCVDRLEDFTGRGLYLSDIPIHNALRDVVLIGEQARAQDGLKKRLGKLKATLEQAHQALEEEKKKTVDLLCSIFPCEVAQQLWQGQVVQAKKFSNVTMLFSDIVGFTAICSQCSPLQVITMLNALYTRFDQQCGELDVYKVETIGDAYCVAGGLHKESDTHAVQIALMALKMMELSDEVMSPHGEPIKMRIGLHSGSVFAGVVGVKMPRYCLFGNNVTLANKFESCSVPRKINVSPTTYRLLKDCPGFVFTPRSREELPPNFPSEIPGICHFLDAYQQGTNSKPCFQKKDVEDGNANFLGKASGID
T1 sequence (Q02153 1-619): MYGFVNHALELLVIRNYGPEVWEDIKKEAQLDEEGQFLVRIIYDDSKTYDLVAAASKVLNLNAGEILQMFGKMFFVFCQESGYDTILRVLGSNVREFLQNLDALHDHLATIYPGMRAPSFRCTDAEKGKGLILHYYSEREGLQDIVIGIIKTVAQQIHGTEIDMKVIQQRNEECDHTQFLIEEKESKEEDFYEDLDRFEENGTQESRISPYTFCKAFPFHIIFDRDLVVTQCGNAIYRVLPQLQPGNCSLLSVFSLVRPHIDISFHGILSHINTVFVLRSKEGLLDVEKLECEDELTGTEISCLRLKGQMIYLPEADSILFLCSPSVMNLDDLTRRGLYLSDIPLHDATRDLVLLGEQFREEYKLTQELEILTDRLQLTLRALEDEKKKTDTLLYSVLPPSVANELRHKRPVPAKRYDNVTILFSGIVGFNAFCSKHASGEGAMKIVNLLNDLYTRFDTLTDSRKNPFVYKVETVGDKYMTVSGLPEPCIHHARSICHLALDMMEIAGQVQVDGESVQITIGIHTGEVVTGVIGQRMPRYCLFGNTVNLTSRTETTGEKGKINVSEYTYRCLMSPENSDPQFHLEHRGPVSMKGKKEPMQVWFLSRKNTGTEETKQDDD
How it was run: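 EC50 values derive from HTRF cGMP measurement after test compounds act for thirty minutes at room temperature, with or without 50% human serum. Before dosing, the sGC-transfected CHO cells spend one hour with the inhibitor ODQ (40 microM) in IBMX- and 0.1% BSA-containing buffer.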

[3] = target: T2, Recombinant human soluble guanylate cyclase (sGC), alpha 1 / beta 1 subunits, heme-free (Homo sapiens, UniProt Q02108+Q02153); experiment: Molecular assay: cGMP formation by heme-free recombinant sGC (CisBio cGMP detection kit); assay type: biochemical; details: 300 pM heme-free sGC, 37° C., 60 min, cGMP readout; read-out: EC50 nM, Activity of Compounds in Molecular Assay
T2 construct: histidine tag (C); made in house; host or cells: Sf9 insect cells (baculovirus coinfection)
T2 sequence (Q02108 1-690 partner): T1 sequence (Q02108 1-690 partner)
T2 sequence (Q02153 1-619): T1 sequence (Q02153 1-619)
How it was run: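 cGMP generated over 60 min at 37° C (pH 6.8 MOPS buffer, 50 nM GTP, 1.25 mM IBMX, 1% DMSO) by 300 pM heme-free sGC, expressed in Sf9 and heme-stripped with 0.5% Tween 20. HTRF ratios converted to nM cGMP; EC50 fitted from log concentration.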

physchem = details: kinetic from dmso stock
[4] = pION system solution buffer, pH 4.5, pH 4.5, aqueous buffer, Solubility (pH 4.5), pH 4.5 buffer, 16-19 h incubation, 1.0% DMSO
[5] = pION system solution buffer, pH 7.4, pH 7.4, aqueous buffer, Solubility (pH 7.4), pH 7.4 buffer, 16-19 h incubation, 1.0% DMSO

solubility [1, 4]	solubility [1, 5]	EC50 [2]	EC50 [3]	solubility ([1]; pH 6.8, aqueous buffer, Solubility (pH 6.8), pH 6.8)	SMILES	solubility (physchem; pH 4.5, aqueous buffer, Solubility (pH 4.5))	solubility (physchem; pH 7.4, aqueous buffer, Solubility (pH 7.4))
0.95 µg/mL (≈ 1.74 µM)	> 54 µg/mL	600 nM	1600 nM		Cc1cc(C(=O)N2CCCCC2)ccc1COc1ccc(C#N)cc1-c1csc(N2CCC(C(=O)O)CC2)n1 [Compound 274]		
< 0.1 µg/mL	21 µg/mL (≈ 36.6 µM)	15 nM	22 nM	51 µg/mL (≈ 88.9 µM)	Cc1ccc(OCc2ccc(C(=O)N3CCCCC3)cc2C)c(-c2csc(N3C[C@H]4CC[C@@H](C3)[C@@]4(C)C(=O)O)n2)c1 [Compound 214]		
0.3 µg/mL (≈ 0.536 µM)	> 55 µg/mL	39 nM	250 nM		Cc1cc(C(=O)N2CCCCC2)ccc1COc1c(C)cccc1-c1csc(N2C[C@H]3CC[C@@H](C2)[C@H]3C(=O)O)n1 [Compound 208]		

SMILES	solubility [1, 4]	solubility [1, 5]	EC50 [2]	EC50 [3]	solubility ([1]; pH 6.8, aqueous buffer, Solubility (pH 6.8), pH 6.8)	solubility (physchem; pH 4.5, aqueous buffer, Solubility (pH 4.5))	solubility (physchem; pH 7.4, aqueous buffer, Solubility (pH 7.4))
Cc1ccc(OCc2ccc(CN3CCN(C(=O)C4CC4)CC3)cc2C)c(-c2csc(N3CCC(C(=O)O)CC3)n2)c1 [Compound 198]				20 nM		37 µg/mL (≈ 62.8 µM)	> 58 µg/mL

From patent US8815857B2 (Boehringer Ingelheim International GmbH, priority 2011, dated 2014)
